Assay results taken from US6342537B1, “Gel for treatment of skin diseases and for disinfection of the skin” (priority 1994, dated 2002).
Where “and” joins values, the source holds several entries; their conditions need not be identical. Identical values can stand only once. Like-named read-outs stand apart in the source and are kept apart here.

Key:
[1] = system: herpes labialis eruptions; conditions: in vivo
Source text: 23.4—Application of Gelled Alcohol
In this example some of the gelled compositions contained 1.6% by weight HPC and others contained 1.6% by weight EHEC.

[2] = system: herpes labialis eruptions; test: Herpes labialis eruptions, prolonged contact with impregnated cotton (Example 23.2); type: in vivo, human; conditions: for symptom relief: intensive depot treatment
[3] = system: herpes labialis eruptions; conditions: glass container; for symptom relief: two early phases
[4] = system: recurrent herpes genitalia, herpes febrilis (labialis); conditions: nonimmunocompromised patients; cited from earlier work
[5] = system: herpes simplex virus (HSV) type 1; test: Inactivation of herpes simplex virus in infected MRC-5 cells by alcohols (Example 25); type: cell-based; conditions: for HSV - CPE after 44 hours with the detecting cell-layer: duplicate wells
Description: Ethanol is an accepted disinfectant for viruses with an envelope. The purpose of this study was to measure the inactivating effect of “short-chained alcohols” on virus-infected cells.
Four 96 well plates with confluent MRC-5 cell were infected with herpes simplex virus (HSV) type 1. After appearance of 50% cytopathic effect (CPE), the culture medium was removed, and rows of 12 wells were treated with 25 μl/well of the alcohols or buffer after the following scheme: The first row with undiluted, and the following with 96%, 90%, 80%, 70%, 60% and 50% alcohol, respectively—all dilutions performed in buffer (PBS). To the last row was added buffer. After 2, 4, 8, 16 and 32 min, respectively, two wells in each row were emptied and the cells overlaid with PBS. The plate was then frozen at —80° C. Afterwards the wells were seeded with a detection layer of MRC-5 cells and the plates were placed at 37° C. for 44 hours. Virus surviving the treatment with alcohol was detected by the appearance of CPE, characteristic for HSV in the detection monolayer.

Compound: CCO [Ethanol 90%]
- pain reaction on application in the ulceration phase [1]: less pain or shorter duration

Compound: CCO [Ethanol 95%]
- pain reaction on application in the ulceration phase [1]: slight pain of short duration
- symptom relief [2]: palliative effect on symptom relief
- eruption abortive effect [3]: clearly observed
- eruption shortening effect [3]: likewise observed
- symptom relief [3]: very strong symptom relief

Compound: CCO [Ethanol 99%]
- pain reaction on application in the ulceration phase [1]: slight pain of short duration
- abortive effect ([2]; early phase and vesicular phase): some abortive effect
- symptom relief [2]: palliative effect on symptom relief
- eruption abortive effect [3]: clearly observed
- eruption shortening effect [3]: likewise observed
- symptom relief [3]: very strong symptom relief

Compound: Nc1nc2c(ncn2COCCO)c(=O)[nH]1 [Topical acyclovir, acyclovir]
- effectiveness in recurrent herpes genitalia / labialis [4]: not effective

Compound: Butanol
- HSV - CPE after 44 hours with the detecting cell-layer ([5]; 50% alcohol in PBS, 2 min): 0 and 2
- HSV - CPE after 44 hours with the detecting cell-layer ([5]; 50% alcohol in PBS, 4 min): 2
- HSV - CPE after 44 hours with the detecting cell-layer ([5]; 50% alcohol in PBS, 8 min): 2
- HSV - CPE after 44 hours with the detecting cell-layer ([5]; 50% alcohol in PBS, 16 min): 0
- HSV - CPE after 44 hours with the detecting cell-layer ([5]; 50% alcohol in PBS, 32 min): 1 and 0
- HSV - CPE after 44 hours with the detecting cell-layer ([5]; 60% alcohol in PBS, 2 min): 0 and 2
- HSV - CPE after 44 hours with the detecting cell-layer ([5]; 60% alcohol in PBS, 4 min): 2
- HSV - CPE after 44 hours with the detecting cell-layer ([5]; 60% alcohol in PBS, 8 min): 2 and 0
- HSV - CPE after 44 hours with the detecting cell-layer ([5]; 60% alcohol in PBS, 16 min): 0
- HSV - CPE after 44 hours with the detecting cell-layer ([5]; 60% alcohol in PBS, 32 min): 1 and 0
- HSV - CPE after 44 hours with the detecting cell-layer ([5]; 70% alcohol in PBS, 2 min): 0
- HSV - CPE after 44 hours with the detecting cell-layer ([5]; 70% alcohol in PBS, 4 min): 0 and 1
- HSV - CPE after 44 hours with the detecting cell-layer ([5]; 70% alcohol in PBS, 8 min): 1 and 0
- HSV - CPE after 44 hours with the detecting cell-layer ([5]; 70% alcohol in PBS, 16 min): 0 and 1
- HSV - CPE after 44 hours with the detecting cell-layer ([5]; 70% alcohol in PBS, 32 min): 1
- HSV - CPE after 44 hours with the detecting cell-layer ([5]; 80% alcohol in PBS, 2 min): 0
- HSV - CPE after 44 hours with the detecting cell-layer ([5]; 80% alcohol in PBS, 4 min): 0 and 1
- HSV - CPE after 44 hours with the detecting cell-layer ([5]; 80% alcohol in PBS, 8 min): 1 and 0
- HSV - CPE after 44 hours with the detecting cell-layer ([5]; 80% alcohol in PBS, 16 min): 0
- HSV - CPE after 44 hours with the detecting cell-layer ([5]; 80% alcohol in PBS, 32 min): 1 and 0
- HSV - CPE after 44 hours with the detecting cell-layer ([5]; 90% alcohol in PBS, 2 min): 0
- HSV - CPE after 44 hours with the detecting cell-layer ([5]; 90% alcohol in PBS, 4 min): 0 and 1
- HSV - CPE after 44 hours with the detecting cell-layer ([5]; 90% alcohol in PBS, 8 min): 0
- HSV - CPE after 44 hours with the detecting cell-layer ([5]; 90% alcohol in PBS, 16 min): 1 and 0
- HSV - CPE after 44 hours with the detecting cell-layer ([5]; 90% alcohol in PBS, 32 min): 0 and 3
- HSV - CPE after 44 hours with the detecting cell-layer ([5]; 96% alcohol in PBS, 2 min): 0
- HSV - CPE after 44 hours with the detecting cell-layer ([5]; 96% alcohol in PBS, 4 min): 0
- HSV - CPE after 44 hours with the detecting cell-layer ([5]; 96% alcohol in PBS, 8 min): 0 and 2
- HSV - CPE after 44 hours with the detecting cell-layer ([5]; 96% alcohol in PBS, 16 min): 0
- HSV - CPE after 44 hours with the detecting cell-layer ([5]; 96% alcohol in PBS, 32 min): 0
- inactivation of herpes simplex virus (in words) ([5]; HSV type 1 infected MRC-5 cells): able to inactivate herpes simplex virus even intracellular virus
- HSV - CPE after 44 hours with the detecting cell-layer ([5]; alcohol undiluted, 2 min with alcohol): 0
- HSV - CPE after 44 hours with the detecting cell-layer ([5]; alcohol undiluted, 4 min): 0
- HSV - CPE after 44 hours with the detecting cell-layer ([5]; alcohol undiluted, 8 min): 0
- HSV - CPE after 44 hours with the detecting cell-layer ([5]; alcohol undiluted, 16 min): 0
- HSV - CPE after 44 hours with the detecting cell-layer ([5]; alcohol undiluted, 32 min): 0
